Laboratory results taken from US20140275969A1, “FUNCTIONAL BROWN ADIPOSE TISSUE IMAGING TECHNIQUE” (GENERAL ELECTRIC COMPANY, priority 2013, published 2014).
Entries after “also recorded” stand apart in the source; their conditions may differ. Marks after values point to notes of the source that are not given here.

Tests used:
[1] = test system: brown adipose tissue (BAT-associated dorsal interscapular region); assay: Hyperpolarized 13C MR imaging of brown adipose tissue activation after norepinephrine stimulation; type: in vivo, male Sprague-Dawley rats
Description: (§1) The following experimental results are from studies using male Sprague-Dawley rats (n=5, weight=336 g, SD=66 g) that were assessed for brown adipose tissue activation and assessment according to certain embodiments of the disclosure. The animals were kept at an ambient room temperature of 22° C. Ketamine/xylazine was used for anesthesia, with periodic intramuscular re-administration to maintain anesthesia (80-100 mg/kg ketamine, 8-10 mg/kg xylazine). Blood oxygen saturation and heart rate were monitored using a peripheral pulse oximeter placed on the tail. The body temperature of the animal was maintained throughout the imaging procedures using a heated water pad.
(§2) The animals were scanned in the supine position using a 3T GE MR750 scanner (GE Healthcare, Waukesha, Wis.). A micro-strip dual-tuned ^1H/^13C rat coil (Magvale, San Francisco, Calif.) was used. The rat was positioned so that the heart was in the centre of the coil, taking care to position the dorsal interscapular fat pad to remain within the sensitive region of the coil. A T2-weighted fast spin echo (FSE) (TE, 87 ms; TR, 5 s; matrix size, 192×160; FOV, 12×12 cm^2; slice thickness, 3 mm) sequence was used to obtain an anatomical reference for co-registration. A 2D FSE IDEAL sequence (TR, 5 s; matrix size, 192×160; FOV, 12×12 cm^2, slice thickness, 3 mm) was used to obtain water and fat images.
(§3) Hyperpolarized ^13C MR imaging scans were performed following intravenous tail vein infusions of 2.0 mL/80 mM pre-polarized [1-^13C] pyruvate. Pyruvate was injected over 10 seconds, with the MR imaging acquisition started simultaneously with the start of injection. Hyperpolarized scans were performed during baseline (n=5) and stimulated (n=3) conditions, 15 minutes after 2.5 mg/kg intraperitoneal norepinephrine (NE) injection, separated by approximately 1 hour to prepare the hyperpolarized sample. Pyruvate, bicarbonate, and lactate were imaged in an axial orientation using a multi-slice, single-shot, time-resolved 13C spiral imaging pulse sequence previously developed for large animal cardiac imaging (TR, 5 s; FOV, 48×48 cm^2; in-plane resolution, 6.8×6 8 mm^2; 6 slices, slice thickness/spacing, 10 mm/1 mm; pyruvate FA 10°, bicarbonate and lactate FA 60°; scan time, 1 min) (18, 24, 25). Each metabolic volume was acquired once during each TR, giving a total of 12 frames.
(§4) ROIs were drawn using the T2-weighted anatomical images, over the heart, kidneys, and in the dorsal interscapular region, a known depot of BAT in rodents. The ^13C image intensity in these ROIs were normalized to the temporal maximum pyruvate signal in the heart, and corrected for nominal FA by dividing by sin(FA). Statistical significance between baseline and norepinephrine stimulated conditions were assessed using a two-tailed, unpaired Student's t-test. Statistical significance was considered at the P<0.05 level.
To separate the effect from the effect of a change in perfusion, the dynamic data was fit on a voxel-by-voxel basis to obtain the apparent rate constants for pyruvate-to-bicarbonate conversion (kpyr,bic, s^−1) and pyruvate-to-lactate exchange (kpyr,lac, s^−1).

[2] = test system: heart; assay: Hyperpolarized 13C MR imaging after norepinephrine stimulation, heart ROI; type: in vivo, male Sprague-Dawley rats
Description: as §1, §2, §3, §4

[3] = test system: kidneys; assay: Hyperpolarized 13C MR imaging after norepinephrine stimulation, kidney ROI; type: in vivo, male Sprague-Dawley rats
Description: as §1, §2, §3, §4

[4] = human full blood at 37 degrees C.; cited from earlier work
[5] = BAT-associated dorsal interscapular region, voxel-by-voxel fit of dynamic data

Row | Structure (SMILES) | 13C bicarbonate signal change following norepinephrine stimulation, relative to substrate signal in the heart ([1]; BAT-associated dorsal interscapular region, in words) | Difference in apparent pyruvate-to-bicarbonate conversion rate (kpyr,bic) versus baseline [1, 5] [fold] | Difference in apparent pyruvate-to-lactate conversion rate (kpyr,lac) versus baseline [1, 5] [fold] | Increase in hyperpolarized [1-13C] lactate (lactate-to-pyruvate ratio) versus baseline ([1]; BAT-associated interscapular region, P<0.001) [fold] | Increase in hyperpolarized 13C bicarbonate (bicarbonate-to-pyruvate ratio) versus baseline ([1]; BAT-associated interscapular region, P<0.01) [fold] | Hyperpolarized [1-13C] lactate signal change following norepinephrine infusion ([1]; dorsal interscapular region, in words) | Maximum bicarbonate to maximum cardiac pyruvate signal ratio ([1]; interscapular region, 15 minutes after 2.5 mg/kg intraperitoneal norepinephrine, n = 2, mean±SD) | Maximum lactate to maximum cardiac pyruvate signal ratio ([1]; interscapular region, 15 minutes after 2.5 mg/kg intraperitoneal norepinephrine, n = 3, mean±SD) | Maximum bicarbonate to maximum cardiac pyruvate signal ratio ([2]; 15 minutes after 2.5 mg/kg intraperitoneal norepinephrine, n = 2, mean±SD) | Maximum lactate to maximum cardiac pyruvate signal ratio ([2]; 15 minutes after 2.5 mg/kg intraperitoneal norepinephrine, n = 3, mean±SD) | Increase in hyperpolarized lactate signal versus baseline ([2]; P<0.001) [fold] | Hyperpolarized [1-13C] lactate signal change following norepinephrine infusion ([2]; in words) | 13C bicarbonate signal change following norepinephrine stimulation, relative to substrate signal in the heart ([2]; in words, listed as NE) | 13C bicarbonate signal change following norepinephrine stimulation, relative to substrate signal in the heart ([2]; in words, listed as norepinephrine) | Maximum bicarbonate to maximum cardiac pyruvate signal ratio ([3]; kidney, 15 minutes after 2.5 mg/kg intraperitoneal norepinephrine, n = 2, mean±SD) | Maximum lactate to maximum cardiac pyruvate signal ratio ([3]; kidney, 15 minutes after 2.5 mg/kg intraperitoneal norepinephrine, n = 3, mean±SD) | 13C bicarbonate signal change following norepinephrine stimulation, relative to substrate signal in the heart ([3]; kidney, in words) | Increase in hyperpolarized lactate signal versus baseline ([3]; kidneys, P<0.05) [fold] | Hyperpolarized [1-13C] lactate signal change following norepinephrine infusion ([3]; kidneys, in words) | T1 relaxation [4]
1 | NC[C@H](O)c1ccc(O)c(O)c1 [Norepinephrine, norepinephrine] | increased | 3.4 | 4.0 | 4.0 | 4.3 | Increases | 0.0047 ± 0.0010*^ | 0.0543 ± 0.0051 | 0.0099 ± 0.0032^ns | 0.0816 ± 0.0191 | 4.0 | Increases | remained constant | remained constant; also recorded: not statistically significant | 0.0036 ± 0.0028^ns | 0.0625 ± 0.0130 | decreased | 1.9 | Increases | –
2 | CC(=O)[13C](=O)O [^13C1-pyruvate, [1-^13C] pyruvate] | – | – | – | – | – | – | – | – | – | – | – | – | – | – | – | – | – | – | – | about 42 s
